We go through 1 compound from patent publication US20170196859A1, “PHARMACEUTICAL COMPOSITION COMPRISING PYRAZINE CARBOXAMIDE COMPOUND AS ACTIVE INGREDIENT” (Astellas Pharma Inc., priority 2014, published 2017).

Common to all, as to assay type: cell-based
The test system of assay [1] is human anaplastic large cell lymphoma cell line KARPAS-299 cells. Put plainly: Proliferation inhibition, KARPAS-299 cells (CellTiter-Glo). As to conditions: KARPAS-299, 72 h, 3 days culture. The procedure:
KARPAS-299 is a cell line originated from human anaplastic large cell lymphoma and the activation of JAK 3 has been confirmed (Oncogene. 2002; 21:1038-1047). The human anaplastic large cell lymphoma cell line KARPAS-299 cells (DSMZ, ACC31) cultured in RPMI1640 medium (Sigma) containing a 10% bovine serum were seeded into 96 well plates. On the same day, DMSO solution of the test compound B at a final concentrations from 1 nM to 10 μM or only DMSO (DMSO group) were added thereto to culture the cells at 37° C. in 5% CO2 for 3 days. Thereafter, the cell number was measured using a cell counting reagent (CellTiter-Glo (registered trademark) Luminescent Cell Viability Assay (Promega)). The cell proliferation inhibition rate was calculated as the measured value in the DMSO group set as 0% inhibition and the measured value in the well only with the medium on which the cells have not been seeded set as 100% inhibition.

In assay [2] the test system is human anaplastic large cell lymphoma cell line SU-DHL-1 cells. Nature of the assay: Proliferation inhibition, SU-DHL-1 cells (CellTiter-Glo). The settings on record: SU-DHL-1, 96 h, 4 days culture. The procedure: SU-DHL-1 is a cell line originated from human anaplastic large cell lymphoma and the activation of JAK 3 has been confirmed (Leukemia. 2014; 28:941-944). The human anaplastic large cell lymphoma cell line SU-DHL-1 cells (American Type Culture Collection, CRL-2955) cultured in RPMI1640 medium (Sigma) containing 10% bovine serum were seeded into 96 well plates. On the same day, DMSO solutions of the test compound B at a final concentrations from 1 nM to 10 μM or only DMSO (DMSO group) was added thereto to culture the cells at 37° C. in 5% CO2 for 4 days. Thereafter, the cell number was measured using a cell counting reagent (CellTiter-Glo (registered trademark) Luminescent Cell Viability Assay (Promega)). The cell proliferation inhibition rate was calculated as the measured value in the DMSO group set as 0% inhibition and the measured value in the well only with the medium on which the cells have not been seeded set as 100% inhibition.

Assay [3] concerns human acute megakaryocytic leukemia cell line CMK cells. Nature of the assay: Proliferation inhibition, CMK cells (CellTiter-Glo). The settings on record: 96 h, 4 days culture. Here is the method:
CMK is a cell line originated from human acute megakaryocytic leukemia and the activation of JAK 3 has been confirmed (Cancer Cell. 2006; 10:65-75). The human acute megakaryocytic leukemia cell line CMK cells (DSMZ, ACC392) cultured in RPMI1640 medium (Sigma) containing 20% bovine serum and 2 mM of glutamine were inoculated into 96 well plates. On the same day, DMSO solutions of the test compound B at final concentrations from 1 nM to 10 μM or only DMSO (DMSO group) were added thereto to culture the cells at 37° C. in 5% CO2 for 4 days. Thereafter, the cell number was measured using a cell counting reagent (CellTiter-Glo (registered trademark) Luminescent Cell Viability Assay (Promega)). The cell proliferation inhibition rate was calculated as the measured value in the DMSO group set as 0% inhibition and the measured value in the well only with the medium on which the cells have not been seeded set as 100% inhibition.
A general note: In ATP-based viability assays light output follows the ATP content of the culture.

As usually defined, the IC50 is the midpoint of a concentration-inhibition curve. Lower therefore signals inhibition by little substance. As for `C=CC(=O)N1CC[C@@H](Oc2nc(Nc3ccc(N4CCC(N5CCN(C)CC5)CC4)cc3)c(C(N)=O)nc2CC)C1` [test compound B, 5-{[(3R)-1-acryloylpyrrolidin-3-yl]oxy}-6-ethyl-3-({4-[4-(4-methylpiperazin-1-yl)piperidin-1-yl]phenyl}amino)pyrazine-2-carboxamide monomethanesulfonate], the IC50 in assay [1] amounted to 0.25 µM; in assay [2], 0.12 µM; in assay [3] it was 0.11 µM.
